Measurements published in patent US12433838B2, “Liposomal formulation of bacterial lipopolysaccharide combined with a cytotoxic agent, and use thereof in anti-tumour therapy” (priority 2017, dated 2025).

What was measured:
[1] = test system: RL lymphoma cells (CD20+ human B lymphoma cells); test: Tumour growth monitoring in RL cells xenografted mice; format: in vivo, Scid CB17 mice; conditions: 46 days after the tumour graft; 30 mg/kg, one injection per week; FIG. 1
Text: During this experiment, six groups of Scid CB17 mice have been used. Each group is comprised at six mice.
Group 1=control (no treatment)

SaOS cells = test: Apoptosis of SaOS spheroids with Lipo-LPS-activated THP-1 macrophages and/or etoposide (IncuCyte Caspase-3/7); format: cell-based, rat; conditions: 5 μM etoposide or macrophages stimulated 16 h with 100 ng/mL Lipo-LPS, fluorescence arbitrary units, FIG. 6
Text: The SaOS cells are […] osteosarcoma cells. This is a malignant bone tumour. These cells can be cultured according to a 3D spheroid model adapted to tumour cells.
THP-1 are human monocytic cells derived from an acute monocytic leukemia.
To perform cellular death monitoring of these SaOS cells, the fluorescent product IncuCyte® Caspase-3/7 has been used to evaluate the number of apoptosis cells.
The results are shown in FIG. 6, in fluorescence arbitrary units.

Row | Compound | Tumour volume relative to control mice [1] | Apoptosis rate of SaOS cells with respect to the control (SaOS cells) | Apoptosis rate of SaOS cells with respect to the control (SaOS cells; listed as epotoside)
1 | rituximab | twice lower | – | –
2 | COc1cc([C@@H]2c3cc4c(cc3[C@@H](O[C@@H]3O[C@@H]5CO[C@@H](C)O[C@H]5[C@H](O)[C@H]3O)[C@H]3COC(=O)[C@H]23)OCO4)cc(OC)c1O [etoposide] | – | induces cancer cell apoptosis | significantly increased with respect to the control
